IC50 data for 13 compounds are collected here from article PMC10893060, “Synthesis and Study of the Structure–Activity Relationship of Antiproliferative N-Substituted Isosteviol-Based 1,3-Aminoalcohols” (Pharmaceuticals, 2024).

Type in all cases: cell-based
One assay has as its system MCF-7. The assay can be described thus: MTT antiproliferative assay, MCF-7. The settings on record: Homo sapiens, MCF7, 72 h, no IC50 calculated when less than 50% inhibition at 10 μM. An excerpt:
(§1) The antiproliferative activities of the prepared diterpene analogues were studied using an MTT assay on a panel of human adherent cancer lines, including cells from cervical (HeLa), breast (MDA-MB-231, MCF-7), and ovary cancers (A2780), as given in Figure 1 and Table S1 in the Supplementary Materials. A non-malignant fibroblast cell line (NIH/3T3) was also utilised to obtain preliminary information on the cancer selectivity of the tested compounds. Based on the obtained activities, some conclusions could be drawn regarding the structure–activity relationships (SARs). Since neither the key intermediate benzyl ester of hydroxylaldehyde 4 nor the N-Boc protected aminoalcohols (6, 7, 11, 12) or even compound 8 with a free carboxylic function exerted remarkable antiproliferative effects (except for 12 against A2780 ovarian cancer cells), we could conclude that the simultaneous presence of the ester function and the basic secondary amino function were essential for the inhibition of cell growth. […] All active molecules inhibited considerably the proliferation of non-malignant cells, which meant that most currently presented agents were not optimal for further investigations of their anticancer properties.
(§2) The growth-inhibitory effects of the isosteviol-based 1,3-aminoalcohols were determined by a standard MTT (3-(4,5-dimethylthiazol-2-yl)-2,5-diphenyltetrazolium bromide) assay on a panel containing five cell lines, including Hela (cervical cancer), MDA-MB-231 and MCF-7 (breast cancers), and A2780 ovarian cancer cells. All cell lines were purchased from the European Collection of Cell Cultures (Salisbury, UK). The cells were maintained in a minimal essential medium supplemented with 10% foetal bovine serum, 1% non-essential amino acids, and 1% penicillin–streptomycin at 37 °C in a humidified atmosphere containing 5% CO2. All media and supplements were obtained from Lonza Group Ltd. (Basel, Switzerland). Cancer cells were seeded into 96-well plates (5000 cells/well); after overnight incubation, the test compound was added in two different concentrations (10 µM and 30 µM) and incubated for another 72 h under cell-culturing conditions. In the next step, 20 μL of 5 mg/mL of an MTT solution was added to each well and incubated for a further 4 h. The medium was removed and the precipitated formazan crystals were dissolved in DMSO after 60 min of shaking at 37 °C. As a final step, the absorbance was measured at 545 nm by using a microplate reader. Untreated cells were included as controls. […] Two independent experiments were performed with five wells for each condition. Calculations were performed using the GraphPad Prism 10.0 software (GraphPad Software Inc., San Diego, CA, USA).

In the next assay the test system is MDA-MB-231. The assay can be described thus: MTT antiproliferative assay, MDA-MB-231. The settings on record: Homo sapiens, 72 h, no IC50 calculated when less than 50% inhibition at 10 μM.
Source text: as §1, §2

A further assay concerns A2780. The assay can be described thus: MTT antiproliferative assay, A2780. The note with it: Homo sapiens, 72 h, no IC50 calculated when less than 50% inhibition at 10 μM.
Source text: as §1, §2

The test system of a further assay is NIH/3T3. The assay can be described thus: MTT assay on non-malignant fibroblasts. The settings on record: Mus musculus, NIH3T3, 72 h, no IC50 calculated when less than 50% inhibition at 10 μM.
Source text: as §1, §2

Another assay concerns HeLa. Briefly: MTT antiproliferative assay, HeLa. The settings on record: Homo sapiens, 72 h, no IC50 calculated when less than 50% inhibition at 10 μM.
Source text: as §1, §2

The term IC50 denotes the concentration that gives 50% inhibition. For the compound `CC[C@@H](NC[C@@H]1[C@@H](O)[C@@]2(C)CCC3[C@]1(CC[C@@H]1[C@](C)(C(=O)OC)CCC[C@@]31C)C2)c1ccccc1` (stereo partly drawn) [Compound 24, (4R,4aS,6aS,7R,8R,9S,11bS)-Methyl 8-hydroxy-4,9,11b-trimethyl-7-((((R)-1-phenylpropyl)amino)methyl)tetradecahydro-6a,9-methanocyclohepta[a]naphthalene-4-carboxylate], the IC50 was 2.37 µM in the assay with MCF-7; 4.99 µM in the assay with MDA-MB-231; 4.52 µM in the assay on A2780; 4.44 µM in the assay with NIH/3T3; 3.04 µM with HeLa.
On the same counts, the results for `C=CC(=O)OCCCCOC(=O)[C@]1(C)CCC[C@@]2(C)C3CC[C@@]4(C)C[C@]3(CC[C@H]12)[C@H](CN(Cc1ccc(F)cc1)C(=O)OC(C)(C)C)[C@H]4O` (stereo partly drawn) [Compound 11, (4R,4aS,6aS,7R,8R,9S,11bS)-4-(Acryloyloxy)butyl 7-(((tert-butoxycarbonyl)(4-fluorobenzyl)amino)methyl)-8-hydroxy-4,9,11b-trimethyltetradecahydro-6a,9-methanocyclohepta[a]naphthalene-4-carboxylate] are greater than 10 µM, greater than 10 µM, greater than 10 µM, greater than 10 µM and greater than 10 µM.
Taken in the same sequence, the figures for `C[C@@H](NC[C@@H]1[C@@H](O)[C@@]2(C)CCC3[C@]1(CC[C@@H]1[C@](C)(C(=O)OCc4ccccc4)CCC[C@@]31C)C2)c1cccc2ccccc12` (stereo partly drawn) [Compound 18, (4R,4aS,6aS,7R,8R,9S,11bS)-Benzyl 8-hydroxy-4,9,11b-trimethyl-7-((((R)-1-(naphthalen-1-yl)ethyl)amino)methyl)tetradecahydro-6a,9-methanocyclohepta[a]naphthalene-4-carboxylate] were 4.85 µM, 4.63 µM, 2.89 µM, 4.61 µM and 3.05 µM.
On the same counts, the results for `C[C@H](NC[C@@H]1[C@@H](O)[C@@]2(C)CCC3[C@]1(CC[C@@H]1[C@](C)(C(=O)OCc4ccccc4)CCC[C@@]31C)C2)c1cccc2ccccc12` (stereo partly drawn) [Compound 19, (4R,4aS,6aS,7R,8R,9S,11bS)-Benzyl 8-hydroxy-4,9,11b-trimethyl-7-((((S)-1-(naphthalen-1-yl)ethyl)amino)methyl)tetradecahydro-6a,9-methanocyclohepta[a]naphthalene-4-carboxylate] are 5.59 µM, 7.29 µM, 4.41 µM, 5.44 µM and 6.08 µM.
In the case of `COC(=O)[C@]1(C)CCC[C@@]2(C)C3CC[C@@]4(C)C[C@]3(CC[C@H]12)[C@H](CN[C@H](C)c1ccc(F)cc1)[C@H]4O` (stereo partly drawn) [Compound 23, (4R,4aS,6aS,7R,8R,9S,11bS)-Methyl 7-((((R)-1-(4-fluorophenyl)ethyl)amino)methyl)-8-hydroxy-4,9,11b-trimethyltetradecahydro-6a,9-methanocyclohepta[a]naphthalene-4-carboxylate], the IC50 is 3.16 µM in the assay on MCF-7; 5.08 µM in the assay on MDA-MB-231; 4.24 µM with A2780; 1.79 µM in the assay with NIH/3T3; 4.16 µM in the assay on HeLa.
On the same counts, the results for `CC(C)(C)OC(=O)N(Cc1ccc(F)cc1)C[C@@H]1[C@@H](O)[C@@]2(C)CCC3[C@]1(CC[C@@H]1[C@](C)(C(=O)O)CCC[C@@]31C)C2` (stereo partly drawn) [Compound 7, (4R,4aS,6aS,7R,8R,9S,11bS)-7-(((tert-butoxycarbonyl)(4-fluorobenzyl)amino)methyl)-8-hydroxy-4,9,11b-trimethyltetradecahydro-6a,9-methanocyclohepta[a]naphthalene-4-carboxylic Acid] are greater than 10 µM, greater than 10 µM, greater than 10 µM, greater than 10 µM and greater than 10 µM.
For the compound `C[C@]12CCC3[C@](CC[C@@H]4[C@](C)(C(=O)OCc5ccccc5)CCC[C@@]34C)(C1)[C@H](CNCc1ccc(F)cc1)[C@H]2O` (stereo partly drawn) [Compound 5, (4R,4aS,6aS,7R,8R,9S,11bS)-Benzyl 7-(((4-fluorobenzyl)amino)methyl)-8-hydroxy-4,9,11b-trimethyltetradecahydro-6a,9-methanocyclohepta[a]naphthalene-4-carboxylate], the IC50 in the assay on MCF-7 was 4.29 µM; in the assay on MDA-MB-231 it was 5.98 µM; with A2780, 4.57 µM; in the assay on NIH/3T3, 4.27 µM; in the assay with HeLa, 4.17 µM.
With `CC[C@H](NC[C@@H]1[C@@H](O)[C@@]2(C)CCC3[C@]1(CC[C@@H]1[C@](C)(C(=O)OC)CCC[C@@]31C)C2)c1ccccc1` (stereo partly drawn) [Compound 25, (4R,4aS,6aS,7R,8R,9S,11bS)-Methyl 8-hydroxy-4,9,11b-trimethyl-7-((((S)-1-phenylpropyl)amino)methyl)tetradecahydro-6a,9-methanocyclohepta[a]naphthalene-4-carboxylate], the IC50 with MCF-7 is 4.17 µM; with MDA-MB-231, 6.53 µM; with A2780, 4.83 µM; in the assay on NIH/3T3, 3.98 µM; in the assay on HeLa, 4.43 µM.
On the same counts, the results for `CC12CCC3C(CC[C@@H]4[C@](C)(C(=O)OCc5ccccc5)CCC[C@@]34C)(C1)[C@H](CNCCCn1ccnc1)[C@H]2O` (stereo partly drawn) [Compound 20, (4R,4aS,7R,8R,11bS)-Benzyl 7-(((3-(1H-imidazol-1-yl)propyl)amino)methyl)-8-hydroxy-4,9,11b-trimethyltetradecahydro-6a,9-methanocyclohepta[a]naphthalene-4-carboxylate] are 1.37 µM, 1.78 µM, 3.74 µM, 4.78 µM and 1.99 µM.
Taken in the same sequence, the figures for `COC(=O)[C@]1(C)CCC[C@@]2(C)C3CC[C@@]4(C)C[C@]3(CC[C@H]12)[C@H](CN[C@@H](C)c1ccc2ccccc2c1)[C@H]4O` (stereo partly drawn) [Compound 26, (4R,4aS,6aS,7R,8R,9S,11bS)-Methyl 8-hydroxy-4,9,11b-trimethyl-7-((((S)-1-(naphthalen-2-yl)ethyl)amino)methyl)tetradecahydro-6a,9-methanocyclohepta[a]naphthalene-4-carboxylate] were 3.67 µM, 6.07 µM, 4.11 µM, 3.12 µM and 4.33 µM.
On the same counts, the results for `CC(C)(C)OC(=O)N(Cc1ccc(F)cc1)C[C@@H]1[C@@H](O)[C@@]2(C)CCC3[C@]1(CC[C@@H]1[C@](C)(C(=O)OCc4ccccc4)CCC[C@@]31C)C2` (stereo partly drawn) [Compound 6, (4R,4aS,6aS,7R,8R,9S,11bS)-Benzyl 7-(((tert-butoxycarbonyl)(4-fluorobenzyl)amino)methyl)-8-hydroxy-4,9,11b-trimethyltetradecahydro-6a,9-methanocyclohepta[a]naphthalene-4-carboxylate] are greater than 10 µM, greater than 10 µM, greater than 10 µM, greater than 10 µM and greater than 10 µM.
Take `COC(=O)[C@]1(C)CCC[C@@]2(C)C3CC[C@@]4(C)C[C@]3(CC[C@H]12)[C@H](CNCCCn1ccnc1)[C@H]4O` (stereo partly drawn) [Compound 28, (4R,4aS,6aS,7R,8R,9S,11bS)-Methyl 7-(((3-(1H-imidazol-1-yl)propyl)amino)methyl)-8-hydroxy-4,9,11b-trimethyltetradecahydro-6a,9-methanocyclohepta[a]naphthalene-4-carboxylate]: the IC50 in the assay with MCF-7 was 3.82 µM; with MDA-MB-231, 4.34 µM; in the assay on A2780 it was 4.42 µM; with NIH/3T3 it was 1.55 µM; in the assay on HeLa, 3.72 µM.
On the same counts, the results for `CC[C@@H](NC[C@@H]1[C@@H](O)[C@@]2(C)CCC3[C@]1(CC[C@@H]1[C@](C)(C(=O)OCc4ccccc4)CCC[C@@]31C)C2)c1ccccc1` (stereo partly drawn) [Compound 16, (4R,4aS,6aS,7R,8R,9S,11bS)-Benzyl 8-hydroxy-4,9,11b-trimethyl-7-((((R)-1-phenylpropyl)amino)methyl)tetradecahydro-6a,9-methanocyclohepta[a]naphthalene-4-carboxylate] are 3.48 µM, 4.79 µM, 4 µM, 1.37 µM and 3.86 µM.
